Measurements as given in patent publication US20230040770A1, “HETEROCYCLIC COMPOUND AND USE THEREOF” (TAKEDA PHARMACEUTICAL COMPANY LIMITED, priority 2019, published 2023).

How the values were obtained:
[1] = molecular target: T1, human orexin type 2 receptor (Homo sapiens, UniProt O43614); assay: Measurement of orexin type 2 receptor agonist activity (calcium indicator fluorescence, CHO cells forcibly expressing human OX2 receptor); assay type: cell-based; conditions: compound at 3 μM; 0% = DMSO, 100% = orexin A (human) 10 nM
T1 construct: expressed in transfected cells
T1 sequence (O43614 1-444): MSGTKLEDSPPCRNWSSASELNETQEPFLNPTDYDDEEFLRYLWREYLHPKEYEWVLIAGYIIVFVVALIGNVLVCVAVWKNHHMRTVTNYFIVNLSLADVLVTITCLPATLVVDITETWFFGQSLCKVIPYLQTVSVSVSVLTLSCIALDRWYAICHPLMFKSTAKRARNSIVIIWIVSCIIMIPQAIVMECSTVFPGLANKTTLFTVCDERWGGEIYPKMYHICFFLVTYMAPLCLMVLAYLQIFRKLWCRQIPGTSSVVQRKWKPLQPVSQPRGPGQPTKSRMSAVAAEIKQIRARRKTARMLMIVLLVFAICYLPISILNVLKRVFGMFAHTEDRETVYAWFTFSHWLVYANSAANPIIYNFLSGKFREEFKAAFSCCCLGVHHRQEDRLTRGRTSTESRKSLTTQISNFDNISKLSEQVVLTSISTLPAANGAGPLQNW
How it was run: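 Agonist response normalised between vehicle (0%) and orexin A at 10 nM final (100%), from kinetic Fluo-4 calcium signals recorded for about 2 min after compound addition. Cells: stable human OX2R CHO clone, dye-loaded 30 min at 37 °C plus 30 min at room temperature.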

[2] = Evaluation of microsome stability in human; assay type: in vitro ADME; conditions: pH 7.4; in vitro intrinsic metabolic clearance; human liver microsomes 0.2 mg/mL, 1 μmol/L test compound, NADPH-generating system
Procedure: Human liver microsomes were purchased from Xenotech, LLC (Lenexa, Kans.). An incubation mixture consisted of microsomes in 50 mmol/L KH2PO4—K2HPO4 phosphate buffer (pH 7.4) and 1 μmol/L test compound. The concentration of microsomal protein was 0.2 mg/mL. An NADPH-generating system (5 mmol/L MgCl2, 5 mmol/L glucose-6-phosphate, 0.5 mmol/L beta-NADP+ and 1.5 unit/mL glucose-6-phosphate dehydrogenase) was added to the incubation mixture with a half volume of the reaction mixture to initiate the enzyme reaction. The reaction was terminated 15 and 30 minutes after the initiation of the reaction by mixing the reaction mixture with acetonitrile, followed by centrifugation at 2500 rpm for 10 min. The supernatant was subjected to LC/MS/MS analysis. The metabolic rate constant was calculated as the slope of the remaining rate-time plot. The in vitro intrinsic metabolic clearance was calculated by dividing initial metabolic rate constant by microsomal protein in the incubation mixture.

cynomolgus monkeys = assay: Evaluation of wake-promoting effects in cynomolgus monkeys (EEG/EMG); assay type: in vivo, cynomolgus monkey; conditions: Macaca fascicularis, po, time spent in wakefulness for 4 h after administration, read-out: Wakefulness time (% of vehicle treatment) (Mean); for response vs control in vivo at 10 mg/kg: 10 mg/kg p.o. at ZT12; for response vs control in vivo at 3 mg/kg: 3 mg/kg p.o. at ZT12
Procedure: The wake-promoting effects were evaluated by measuring the electroencephalogram (EEG) and electromyogram (EMG) in cynomolgus monkeys. Under isoflurane anesthesia (1-5%, Pfizer Japan Inc., Tokyo, Japan), male cynomolgus monkeys (3-5 years old, Hamri Co., Ltd., Ibaraki, Japan) were surgically implanted with radio-telemetry transmitters (TL10M3-D70-EEE, Data Sciences International Inc., MN, USA). EEG electrodes were screwed into the skull at the parietal area. EMG electrodes were implanted on the cervical muscles. After the surgery, each monkey was given penicillin (100,000 units/head, i.m., Meiji Seika Pharma Co., Ltd., Tokyo, Japan), buprenorphine (0.02 mg/kg, i.m., Otsuka Pharmaceutical Co., Ltd., Tokyo, Japan) and prednisolone (1 mg/kg, s.c., Kyoritsu Seiyaku Co., Ltd., Tokyo, Japan) daily for one week. After at least a 1-month recovery period in home cages, the monkeys were habituated to the recording chamber placed in a soundproof room. EEG and EMG signals were recorded using the telemetry system (Dataquest ART software, Data Sciences International Inc., MN, USA) and the signals were analyzed using SleepSign software (Kissei Comtec Co., Ltd., Nagano, Japan). After confirming long sleep in dark phase in the experimental room, we used animals to examine the wake-promoting effect of compounds.
Oral test compounds (3 or 10 mg/kg) suspended in 0.5% methylcellulose aqueous solution, or vehicle (i.e., 0.5% methylcellulose aqueous solution) was administered orally (p.o.) to monkeys at zeitgeber time 12 (ZT12) in a volume of 5 mL/kg body weight in cross-over design or pre-post design (n=1-4). EEG and EMG recordings were performed for 4 h after the compound administration. The time spent in wakefulness for 4 h after administration (% of vehicle treatment) was calculated by using SleepSign.
Parenteral test compounds (0.1 or 0.3 mg/kg) dissolved in a mixed solution comprising 5% DMSO, 5% Cremophor EL, 20% PEG400 and 70% soluplus (1% (w/v)), or vehicle (i.e., a mixed solution comprising 5% DMSO, 5% Cremophor EL, 20% PEG400 and 70% soluplus (1% (w/v))) was administered subcutaneously (s.c.) to monkeys at ZT12 in a volume of 0.5 mL/kg body weight in a pre-post design (n=1-2). EEG and EMG recordings were performed for 4 h after the compound administration. The time spent in wakefulness for 4 h after administration (% of vehicle treatment) was calculated by using SleepSign.

Question: For `CCS(=O)(=O)N[C@H]1[C@@H](F)CN(C(=O)[C@H]2CCO2)[C@H]1Cc1cccc(-c2ccccc2)c1F` [Example 302, N-[(2S,3R,4S)-4-fluoro-2-[(2-fluoro[1,1′-biphenyl]-3-yl)methyl]-1-((2R)-oxetane-2-carbonyl)pyrrolidin-3-yl]ethanesulfonamide], which “OX2R agonist activity (3 μM, %)” value [1] is on record?
Answer: 85%

Question: And the microsomal CLint at 1 μmol/L [2]?
Answer: 3 µL/min/mg

Question: What about the response vs control in vivo at 10 mg/kg (cynomolgus monkeys) of the same molecule?
Answer: 288%

Question: Which “OX2R agonist activity (3 μM, %)” value [1] does the source give for `CCS(=O)(=O)N[C@@H]1[C@H](Cc2cccc(-c3cc(F)cc(F)c3)c2F)N(C(=O)C(C)C)CC1(F)F` [Example 146, N-{(2S,3R)-4,4-difluoro-1-(2-methylpropanoyl)-2-[(2,3′,5′-trifluoro[1,1′-biphenyl]-3-yl)methyl]pyrrolidin-3-yl}ethanesulfonamide] here?
Answer: 92%

Question: And the microsomal CLint at 1 μmol/L [2]?
Answer: 83 µL/min/mg

Question: What about the response vs control in vivo at 3 mg/kg (cynomolgus monkeys) of the same molecule?
Answer: 426%

Question: What does the source list for `CCS(=O)(=O)N[C@@H]1[C@H](Cc2cccc(-c3cccc(F)c3F)c2F)N(C(=O)C(C)(C)O)CC1(F)F` [Example 66, N-{(2S,3R)-4,4-difluoro-1-(2-hydroxy-2-methylpropanoyl)-2-[(2,2′,3′-trifluoro[1,1′-biphenyl]-3-yl)methyl]pyrrolidin-3-yl}ethanesulfonamide]?
Answer: OX2R agonist activity (3 μM, %) [1]: 104%; microsomal CLint at 1 μmol/L [2]: 61 µL/min/mg; response vs control in vivo at 3 mg/kg (cynomolgus monkeys): 463%

Question: For `CCS(=O)(=O)N[C@@H]1[C@H](Cc2cccc(-c3cc(F)cc(F)c3)c2F)N(C(=O)[C@H]2CCO2)CC1(F)F` [Example 56, N-{(2S,3R)-4,4-difluoro-1-((2R)-oxetane-2-carbonyl)-2-[(2,3′,5′-trifluoro[1,1′-biphenyl]-3-yl)methyl]pyrrolidin-3-yl}ethanesulfonamide], which “OX2R agonist activity (3 μM, %)” value [1] is on record?
Answer: 95%

Question: And the microsomal CLint at 1 μmol/L [2]?
Answer: 135 µL/min/mg

Question: And the response vs control in vivo at 3 mg/kg (cynomolgus monkeys)?
Answer: 417%

Question: What does the source list for `CCS(=O)(=O)N[C@@H]1[C@H](Cc2cccc(-c3cccc(F)c3)c2F)N(C(=O)[C@H]2CCO2)CC1(F)F` [Example 1, N-[(2S,3R)-2-[(2,3′-difluoro[1,1′-biphenyl]-3-yl)methyl]-4,4-difluoro-1-((2R)-oxetane-2-carbonyl)pyrrolidin-3-yl]ethanesulfonamide]?
Answer: OX2R agonist activity (3 μM, %) [1]: 100%; microsomal CLint at 1 μmol/L [2]: 75 µL/min/mg; response vs control in vivo at 3 mg/kg (cynomolgus monkeys): 234%

Question: For `CCS(=O)(=O)N[C@@H]1[C@H](Cc2cccc(-c3cccc(F)c3)c2F)N(C(=O)C(C)C)CC1(F)F` [Example 94, N-[(2S,3R)-2-[(2,3′-difluoro[1,1′-biphenyl]-3-yl)methyl]-4,4-difluoro-1-(2-methylpropanoyl)pyrrolidin-3-yl]ethanesulfonamide], which “OX2R agonist activity (3 μM, %)” value [1] is on record?
Answer: 99%

Question: And the microsomal CLint at 1 μmol/L [2]?
Answer: 44 µL/min/mg

Question: What about the response vs control in vivo at 3 mg/kg (cynomolgus monkeys) of the same molecule?
Answer: 442%

Question: For `CCS(=O)(=O)N[C@@H]1[C@H](Cc2cccc(-c3cc(F)cc(F)c3)c2F)N(C(=O)[C@H]2C[C@H](F)C2)CC1(F)F` [Example 375, N-{(2S,3R)-4,4-difluoro-1-((1r,3S)-3-fluorocyclobutane-1-carbonyl)-2-[(2,3′,5′-trifluoro[1,1′-biphenyl]-3-yl)methyl]pyrrolidin-3-yl}ethanesulfonamide], which “OX2R agonist activity (3 μM, %)” value [1] is on record?
Answer: 91%

Question: And the microsomal CLint at 1 μmol/L [2]?
Answer: 35 µL/min/mg

Question: What about the response vs control in vivo at 3 mg/kg (cynomolgus monkeys) of the same molecule?
Answer: 396%

Question: For `CCS(=O)(=O)N[C@@H]1[C@H](Cc2cccc(-c3ccccc3)c2F)N(C(=O)C(C)(C)O)CC1(F)F` [Example 5, N-[(2S,3R)-4,4-difluoro-2-[(2-fluoro[1,1′-biphenyl]-3-yl)methyl]-1-(2-hydroxy-2-methylpropanoyl)pyrrolidin-3-yl]ethanesulfonamide], which “OX2R agonist activity (3 μM, %)” value [1] is on record?
Answer: 117%

Question: And the microsomal CLint at 1 μmol/L [2]?
Answer: 12 µL/min/mg

Question: And the response vs control in vivo at 10 mg/kg (cynomolgus monkeys)?
Answer: 412%

Question: Which results are given for `CS(=O)(=O)N[C@@H]1[C@H](Cc2cccc(-c3cc(F)cc(F)c3)c2F)N(C(=O)[C@H]2CCO2)CC1(F)F` [Example 91, N-{(2S,3R)-4,4-difluoro-1-((2R)-oxetane-2-carbonyl)-2-[(2,3′,5′-trifluoro[1,1′-biphenyl]-3-yl)methyl]pyrrolidin-3-yl}methanesulfonamide]?
Answer: OX2R agonist activity (3 μM, %) [1]: 94%; microsomal CLint at 1 μmol/L [2]: 65 µL/min/mg; response vs control in vivo at 10 mg/kg (cynomolgus monkeys): 548%

Question: Which results are given for `CCS(=O)(=O)N[C@@H]1[C@H](Cc2cccc(-c3cccc(F)c3)c2F)N(C(=O)[C@H]2C[C@H](F)C2)CC1(F)F` [Example 225, N-[(2S,3R)-2-[(2,3′-difluoro[1,1′-biphenyl]-3-yl)methyl]-4,4-difluoro-1-((1r,3S)-3-fluorocyclobutane-1-carbonyl)pyrrolidin-3-yl]ethanesulfonamide]?
Answer: OX2R agonist activity (3 μM, %) [1]: 96%; microsomal CLint at 1 μmol/L [2]: 60 µL/min/mg; response vs control in vivo at 3 mg/kg (cynomolgus monkeys): 318%

Question: Which results are given for `CCS(=O)(=O)N[C@@H]1[C@H](Cc2cccc(-c3cc(F)ccc3F)c2F)N(C(=O)C(C)(C)O)CC1(F)F` [Example 67, N-{(2S,3R)-4,4-difluoro-1-(2-hydroxy-2-methylpropanoyl)-2-[(2,2′,5′-trifluoro[1,1′-biphenyl]-3-yl)methyl]pyrrolidin-3-yl}ethanesulfonamide]?
Answer: OX2R agonist activity (3 μM, %) [1]: 111%; microsomal CLint at 1 μmol/L [2]: 4 µL/min/mg; response vs control in vivo at 3 mg/kg (cynomolgus monkeys): 356%
